Results: ChEMBL document CHEMBL5518188, “Discovery of 4-amino-1,6-dihydro-7H-pyrrolo[2,3-d]pyridazin-7-one derivatives as potential receptor-interacting serine/threonine-protein kinase 1 (RIPK1) inhibitors” (Eur J Med Chem, 2024)

Assays:
[1] = test system: HT-29; assay: Anti-necroptosis activity against TSZ-induced human HT-29 cells; type: functional, cell-based
[2] = test system: U-937; assay: Anti-necroptosis activity against TSZ-induced human U-937 cells; type: functional, cell-based
[3] = target: T1, Receptor-interacting serine/threonine-protein kinase 1 (Homo sapiens, UniProt Q13546); assay: Inhibition of RIPK1 (unknown origin) in presence of ATP by kinaseProfiler assay
T1 sequence (Q13546 whole entry): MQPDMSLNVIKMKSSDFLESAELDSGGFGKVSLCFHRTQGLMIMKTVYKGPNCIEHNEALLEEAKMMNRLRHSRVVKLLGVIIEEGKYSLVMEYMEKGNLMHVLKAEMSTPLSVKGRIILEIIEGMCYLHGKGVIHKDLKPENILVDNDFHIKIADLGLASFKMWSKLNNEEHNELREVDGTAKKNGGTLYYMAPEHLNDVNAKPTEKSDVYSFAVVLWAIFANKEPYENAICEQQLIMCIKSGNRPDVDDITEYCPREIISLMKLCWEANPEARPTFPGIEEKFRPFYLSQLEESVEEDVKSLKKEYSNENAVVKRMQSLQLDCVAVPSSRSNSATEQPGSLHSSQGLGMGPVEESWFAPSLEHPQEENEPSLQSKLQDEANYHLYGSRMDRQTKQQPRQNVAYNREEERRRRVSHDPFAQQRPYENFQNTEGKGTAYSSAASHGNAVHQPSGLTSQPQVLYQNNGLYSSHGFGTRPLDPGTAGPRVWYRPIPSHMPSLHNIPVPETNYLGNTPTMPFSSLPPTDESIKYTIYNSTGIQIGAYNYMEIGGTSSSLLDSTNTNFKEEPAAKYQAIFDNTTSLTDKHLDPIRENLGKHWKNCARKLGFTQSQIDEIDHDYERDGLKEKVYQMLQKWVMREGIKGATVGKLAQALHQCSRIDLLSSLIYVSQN

[4] = test system: L929; assay: Anti-necroptosis activity against TSZ-induced mouse L929 cells; type: functional, cell-based
[5] = Metabolic stability in cryopreserved human liver microsome assessed as half life; type: ADME; conditions: cryopreserved liver microsomes

Row | IC50 [3] [nM] | half-life [5] [min] | SMILES | EC50 [1] [nM] | EC50 [2] [nM] | EC50 [4] [nM]
1 | > 1000 | – | CCn1nc(-c2ccc3c(c2)CCN3C(=O)c2cccc(OC(F)(F)F)c2)c2c(N)n[nH]c(=O)c21 | > 1000 | > 1000 | > 1000
2 | 140 | – | Cn1nc(-c2ccc3c(c2)CCN3C(=O)Cc2cccc(OC(F)(F)F)c2)c2c(N)n[nH]c(=O)c21 | 21.4 | 37.1 | 3.4
3 | 475 | – | CCn1nc(-c2ccc3c(c2)CCN3C(=O)Cc2cc(F)cc(C(F)(F)F)c2)c2c(N)n[nH]c(=O)c21 | 331 | 283 | 12.8
4 | 80.5 | 17.8 | COCCn1nc(-c2ccc3c(c2)CCN3C(=O)Cc2cccc(OC(F)(F)F)c2)c2c(N)n[nH]c(=O)c21 | 4.45 | 8.29 | 1.08
5 | 64.3 | 26.6 | CC(C)=CCn1nc(-c2ccc3c(c2)CCN3C(=O)Cc2cccc(OC(F)(F)F)c2)c2c(N)n[nH]c(=O)c21 | 11.3 | 22.7 | 1.38
6 | 133 | 18.1 | CC(C)Cn1nc(-c2ccc3c(c2)CCN3C(=O)Cc2cccc(OC(F)(F)F)c2)c2c(N)n[nH]c(=O)c21 | 6.19 | 9.75 | 1.36
7 | 915 | – | CCn1nc(-c2ccc3c(c2)CCN3C(=O)Cc2ccc3c(c2)OCO3)c2c(N)n[nH]c(=O)c21 | 562 | 703 | 114
8 | 73.7 | 19.9 | Nc1n[nH]c(=O)c2c1c(-c1ccc3c(c1)CCN3C(=O)Cc1cccc(OC(F)(F)F)c1)nn2CC1COC1 | 15.1 | 5.09 | 5.89
9 | > 1000 | – | Nc1n[nH]c(=O)c2c1c(-c1ccc3c(c1)CCN3C(=O)Cc1cccc(OC(F)(F)F)c1)nn2CCC1CCCCC1 | 246 | 103 | 16.2
10 | > 1000 | – | CCn1nc(-c2ccc3c(c2)CCN3C(=O)[C@H](C)c2ccccc2)c2c(N)n[nH]c(=O)c21 | > 1000 | > 1000 | > 1000
11 | 102 | – | NC(=O)c1cccc(-c2ccc3c(c2)CCN3C(=O)Cc2cccc(OC(F)(F)F)c2)c1 | – | – | –
12 | > 1000 | – | CCn1nc(-c2ccc3c(c2)CCN3C(=O)Cc2cccc(F)c2)c2c(N)n[nH]c(=O)c21 | 597 | 722 | 45.6
13 | 66.1 | 26.8 | CC(C)n1nc(-c2ccc3c(c2)CCN3C(=O)Cc2cccc(OC(F)(F)F)c2)c2c(N)n[nH]c(=O)c21 | 7.73 | 17.3 | 1.47
14 | > 1000 | – | CCn1nc(-c2ccc3c(c2)CCN3C(C)=O)c2c(N)n[nH]c(=O)c21 | – | – | –
15 | 290 | – | Nc1n[nH]c(=O)c2c1c(-c1ccc3c(c1)CCN3C(=O)Cc1cccc(OC(F)(F)F)c1)nn2Cc1ccc(F)cc1 | 257 | 112 | 30.2
16 | 105 | 18.3 | CCCCn1nc(-c2ccc3c(c2)CCN3C(=O)Cc2cccc(OC(F)(F)F)c2)c2c(N)n[nH]c(=O)c21 | 8.23 | 15.5 | 1.2
17 | 114 | – | CC(C)CCn1nc(-c2ccc3c(c2)CCN3C(=O)Cc2cccc(OC(F)(F)F)c2)c2c(N)n[nH]c(=O)c21 | 8.24 | 18.5 | 6.36
18 | 84.5 | 31.9 | Nc1n[nH]c(=O)c2c1c(-c1ccc3c(c1)CCN3C(=O)Cc1cccc(OC(F)(F)F)c1)nn2CC(F)F | 16 | 14.6 | 9.84
19 | 112 | – | CCc1nc(-c2ccc3c(c2)CCN3C(=O)Cc2cccc(OC(F)(F)F)c2)c2c(N)nccn12 | – | – | –
20 | 177 | – | CCn1nc(-c2ccc3c(c2)CCN3C(=O)Cc2ccc(OC(F)(F)F)cc2)c2c(N)n[nH]c(=O)c21 | > 1000 | 638 | 726
21 | > 1000 | – | CCn1cc(-c2ccc3c(c2)CCN3C(=O)Cc2cccc(OC(F)(F)F)c2)c2c(=O)[nH]cnc21 | – | – | –
22 | > 1000 | – | CCn1nc(-c2ccc3c(c2)CCN3C(=O)CC2CCCCC2)c2c(N)n[nH]c(=O)c21 | 891 | 879 | 64.5
23 | > 1000 | – | CCn1nc(-c2ccc3c(c2)CCN3Cc2cccc(OC(F)(F)F)c2)c2c(N)n[nH]c(=O)c21 | > 1000 | 990 | 451

Second part, the molecule before the results:

Row | SMILES | IC50 [3] [nM] | half-life [5] [min] | EC50 [1] [nM] | EC50 [2] [nM] | EC50 [4] [nM]
24 | CCn1nc(-c2ccc3c(c2)CCN3C(=O)CCc2ccccc2)c2c(N)n[nH]c(=O)c21 | 191 | – | 149 | 232 | 42.1
25 | CCn1nc(-c2ccc3c(c2)CCN3C(=O)Cc2ccccc2)c2c(N)n[nH]c(=O)c21 | > 1000 | – | 546 | 1020 | 142
26 | CCn1nc(-c2ccc3c(c2)CCN3C(=O)Cc2ccc(Oc3ccccc3)cc2)c2c(N)n[nH]c(=O)c21 | 941 | – | 905 | 812 | 311
27 | NC(=O)c1cncc(-c2ccc3c(c2)CCN3C(=O)Cc2cccc(OC(F)(F)F)c2)c1 | 157 | – | – | – | –
28 | CCn1nc(-c2ccc3c(c2)CCN3C(=O)Cc2cccc(C(F)(F)F)c2)c2c(N)n[nH]c(=O)c21 | 135 | – | 11.3 | 1.38 | 1.75
29 | CCC1(Cn2nc(-c3ccc4c(c3)CCN4C(=O)Cc3cccc(OC(F)(F)F)c3)c3c(N)n[nH]c(=O)c32)COC1 | 81.6 | 16.5 | 18.4 | 4.64 | 6.67
30 | CCn1nc(-c2ccc3c(c2)CCN3C(=O)CCc2cccc(OC(F)(F)F)c2)c2c(N)n[nH]c(=O)c21 | 97.6 | – | 4.62 | 4.82 | 20.3
31 | CCn1nc(-c2ccc3c(c2)CCN3C(=O)C2(c3ccccc3)CC2)c2c(N)n[nH]c(=O)c21 | > 1000 | – | > 1000 | > 1000 | > 1000
32 | CCn1nc(-c2ccc3c(c2)CCN3C(=O)Cc2cccc(F)c2F)c2c(N)n[nH]c(=O)c21 | > 1000 | – | 579 | 946 | 123
33 | CC1(Cn2cc(-c3ccc4c(c3)CCN4C(=O)Cc3cccc(C(F)(F)F)c3)c3c(N)n[nH]c(=O)c32)COC1 | 48.7 | 85.6 | 33 | 22 | 1.58
34 | CC(C)(C)c1ccc(Cn2nc(-c3ccc4c(c3)CCN4C(=O)Cc3cccc(OC(F)(F)F)c3)c3c(N)n[nH]c(=O)c32)cc1 | > 1000 | – | > 1000 | > 1000 | 659
35 | Nc1n[nH]c(=O)c2c1c(-c1ccc3c(c1)CCN3C(=O)Cc1cccc(OC(F)(F)F)c1)nn2CCN1CCCC1 | 512 | – | 63 | 173 | 54.4
36 | Nc1n[nH]c(=O)c2c1c(-c1ccc3c(c1)CCN3C(=O)Cc1cccc(OC(F)(F)F)c1)nn2Cc1ccccc1 | 149 | 28.2 | 108 | 117 | 14.3
37 | Nc1n[nH]c(=O)c2c1c(-c1ccc3c(c1)CCN3C(=O)Cc1cccc(OC(F)(F)F)c1)nn2CCC1CNC1 | > 1000 | 100 | > 1000 | > 1000 | 366
38 | CCn1nc(-c2ccc3c(c2)CCN3C(=O)CCc2cccc(C(F)(F)F)c2)c2c(N)n[nH]c(=O)c21 | 111 | – | 19.3 | 33 | 4.71
39 | Nc1n[nH]c(=O)c2c1c(-c1ccc3c(c1)CCN3C(=O)Cc1cccc(OC(F)(F)F)c1)cn2CC1CC1 | 109 | > 120 | 5.78 | 3.68 | 1.62
40 | NC(=O)c1cc(-c2ccc3c(c2)CCN3C(=O)Cc2cccc(OC(F)(F)F)c2)ccc1N | > 1000 | – | – | – | –
41 | CCNc1ncnc(N)c1-c1ccc2c(c1)CCN2C(=O)Cc1cccc(OC(F)(F)F)c1 | > 1000 | – | – | – | –
42 | Nc1nc2cccc(-c3ccc4c(c3)CCN4C(=O)Cc3cccc(OC(F)(F)F)c3)n2n1 | > 1000 | – | – | – | –
43 | Nc1n[nH]c(=O)c2c1c(-c1ccc3c(c1)CCN3C(=O)Cc1cccc(OC(F)(F)F)c1)nn2CCC1CC1 | 70.3 | – | 18.2 | 4.04 | 3.67
44 | Nc1n[nH]c(=O)c2c1c(-c1ccc3c(c1)CCN3C(=O)Cc1cccc(OC(F)(F)F)c1)nn2CC1CCC1 | 68.4 | – | 34 | 1.87 | 1.35
45 | CCn1cc(-c2ccc3c(c2)CCN3C(=O)Cc2cccc(OC(F)(F)F)c2)c2ncnc(N)c21 | > 1000 | – | – | – | –
46 | Nc1n[nH]c(=O)c2c1c(-c1ccc3c(c1)CCN3C(=O)Cc1cccc(OC(F)(F)F)c1)nn2CCC1CCCC1 | > 1000 | – | 134 | 60.1 | 7.61
47 | CCn1nc(-c2ccc3c(c2)CCN3C(=O)Cc2cccc(OC)c2)c2c(N)n[nH]c(=O)c21 | > 1000 | – | – | – | –
